The assay has as its system BDF1 mice, P388 leukemia ip, median survival T/C. Nature of the assay: NCI In Vivo Anticancer Drug Screen. Data for tumor model P388 Leukemia (intraperitoneal) in B6D2F1 (BDF1) mice. The note with it: endpoint: median survival time, higher = longer survival. In outline: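 Survival ratio, drug arm over vehicle arm, in mice with a transplanted tumour.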
The mark [1] stands for this setting: dose: 50.0 mg/kg/injection, schedule: Q01DX009 (ip), vehicle: saline with Tween-80.
The mark [2] stands for this setting: dose: 200.0 mg/kg/injection, schedule: Q01DX009 (ip), vehicle: saline with Tween-80.
Where [3] appears, read: dose: 50.0 mg/kg/injection, schedule: Q04DX003 (ip), vehicle: saline with Tween-80.
[4] abbreviates: dose: 100.0 mg/kg/injection, schedule: Q04DX003 (ip), vehicle: saline with Tween-80.
[5] abbreviates: dose: 200.0 mg/kg/injection, schedule: Q04DX003 (ip), vehicle: saline with Tween-80.
[6] abbreviates: dose: 100.0 mg/kg/injection, schedule: Q01DX009 (ip), vehicle: saline with Tween-80.
Setting [7] is: dose: 100.0 mg/kg/injection, schedule: Q04DX003 (ip), vehicle: saline.
The mark [8] stands for this setting: dose: 200.0 mg/kg/injection, schedule: Q04DX003 (ip), vehicle: saline.

Each structure is given as a SMILES string. “And” between values parts separate entries of the source, which are not always exact repeats. Equal entries are not always repeated. Toxic doses and inconclusive results are not listed.

`COC(CN1C(=O)CSC1=S)OC`: the T/C by setting is: (dose: 25.0 mg/kg/injection, schedule: Q01DX009 (ip), vehicle: saline with Tween-80) 100 % of control; under setting [1], 104 % of control and 117 % of control; under setting [2], 109 % of control.
Take `C=CCN(CC=C)/N=N/c1nc[nH]c1C(N)=O`: the T/C by setting is: under setting [3], 100 % of control; under setting [4], 95 % of control; under setting [5], 113 % of control.
For `CC(=O)OCC(OC(C)=O)C(OC(C)=O)C(OC(C)=O)C(/C=N/NC(N)=S)=N/NC(N)=S` (stereo not drawn), the T/C by setting is: (dose: 50.0 mg/kg/injection, schedule: Q01DX009 (ip), vehicle: other) 90 % of control; (dose: 100.0 mg/kg/injection, schedule: Q01DX009 (ip), vehicle: other) 100 % of control; (dose: 100.0 mg/kg/injection, schedule: Q04DX003 (ip), vehicle: other) 95 % of control; (dose: 200.0 mg/kg/injection, schedule: Q01DX009 (ip), vehicle: other) 100 % of control; (dose: 200.0 mg/kg/injection, schedule: Q04DX003 (ip), vehicle: other) 105 % of control; (dose: 400.0 mg/kg/injection, schedule: Q04DX003 (ip), vehicle: other) 120 % of control.
For the compound `CC(=O)C1COC(O)C1C` (stereo not drawn), the T/C is 95 % of control (dose: 0.63 mg/kg/injection, schedule: Q01DX010 (ip), vehicle: saline); 115 % of control and 103 % of control (dose: 1.25 mg/kg/injection, schedule: Q01DX009 (ip), vehicle: saline); 100 % of control (dose: 1.25 mg/kg/injection, schedule: Q01DX010 (ip), vehicle: saline); 116 % of control (dose: 2.5 mg/kg/injection, schedule: Q01DX010 (ip), vehicle: saline).
For the compound `COc1cc2c3cc1Oc1c(OC)c(OC)cc4c1C(Cc1cc5c(c(c1)Oc1ccc(cc1)CC3N(C)CC2)OCO5)N(C)CC4` (stereo not drawn), the T/C is 90 % of control (dose: 5.0 mg/kg/injection, schedule: Q01DX010 (ip), vehicle: saline); 104 % of control (dose: 20.0 mg/kg/injection, schedule: Q01DX010 (ip), vehicle: saline); 95 % of control (dose: 40.0 mg/kg/injection, schedule: Q01DX010 (ip), vehicle: saline).
Take `CC(C)=CCC1=C(OC2OC(CO)C(O)C(O)C2O)C(=O)c2ccccc2C1=O` (stereo not drawn): the T/C reads like this: (dose: 1.56 mg/kg/injection, schedule: Q01DX009 (ip), vehicle: saline with Tween-80) 123 % of control; (dose: 3.13 mg/kg/injection, schedule: Q01DX009 (ip), vehicle: saline with Tween-80) 160 % of control.
In the case of `CC(=O)O[C@H]1CC[C@H]2[C@@H]3CCC4=CC(=O)CC[C@]4(C)[C@H]3[C@H](OC(C)=O)C[C@]12C`, the T/C is 100 % of control under setting [4]; 95 % of control under setting [5]; 109 % of control (dose: 400.0 mg/kg/injection, schedule: Q04DX003 (ip), vehicle: saline with Tween-80).
Regarding `O=C1SCCC1CO` (stereo not drawn), the T/C under setting [4] was 114 % of control.
As to `CN1CCN(C(=O)Cc2c[nH]c3ccccc23)CC1`, the T/C runs as follows: (dose: 6.25 mg/kg/injection, schedule: Q01DX009 (ip), vehicle: saline with Tween-80) 105 % of control; (dose: 12.5 mg/kg/injection, schedule: Q04DX003 (ip), vehicle: saline with Tween-80) 111 % of control; (dose: 25.0 mg/kg/injection, schedule: Q04DX003 (ip), vehicle: saline with Tween-80) 101 % of control; under setting [1], 95 % of control; under setting [3], 104 % of control; under setting [6], 89 % of control. For the same compound, the T/C under setting [4] was 113 % of control.
Consider `COC1=C(C2(O)C(=O)N(C)c3ccccc32)C(=O)C(OC)=C(C2(O)C(=O)N(C)c3ccccc32)C1=O` (stereo not drawn), for which the T/C is, setting by setting: (dose: 100.0 mg/kg/injection, schedule: Q01DX001 (ip), vehicle: saline with Tween-80) 91 % of control; (dose: 200.0 mg/kg/injection, schedule: Q01DX001 (ip), vehicle: saline with Tween-80) 89 % of control; (dose: 400.0 mg/kg/injection, schedule: Q01DX001 (ip), vehicle: saline with Tween-80) 90 % of control.
As to `NC(N)=NCCCC(NC(=O)OCc1ccccc1)C(=O)O` (stereo not drawn), the T/C reads like this: (dose: 100.0 mg/kg/injection, schedule: Q04DX003 (ip), vehicle: Klucel (hydroxypropylcellulose) (HPC)) 100 % of control; (dose: 200.0 mg/kg/injection, schedule: Q04DX003 (ip), vehicle: Klucel (hydroxypropylcellulose) (HPC)) 104 % of control; (dose: 400.0 mg/kg/injection, schedule: Q04DX003 (ip), vehicle: Klucel (hydroxypropylcellulose) (HPC)) 100 % of control.
Consider `C[S+](C)CC(=O)c1ccccc1`, for which the T/C (dose: 50.0 mg/kg/injection, schedule: Q01DX001 (ip), vehicle: saline) is 116 % of control; the T/C (dose: 50.0 mg/kg/injection, schedule: Q04DX003 (ip), vehicle: saline) was 91 % of control; the T/C (dose: 100.0 mg/kg/injection, schedule: Q01DX001 (ip), vehicle: saline) was 116 % of control; the T/C under setting [7] was 95 % of control; the T/C (dose: 200.0 mg/kg/injection, schedule: Q01DX001 (ip), vehicle: saline) is 112 % of control; the T/C under setting [8] is 95 % of control.
`C[C@H](N)C(=O)N[C@@H]1[C@H]2C(=C(O)C[C@@H](O)[C@@H]2O)C(=O)O[C@@H]1C`: the T/C was 162 % of control (dose: 100.0 mg/kg/injection, schedule: Q01DX010 (ip), vehicle: saline); 112 % of control (dose: 133.0 mg/kg/injection, schedule: Q04DX003 (ip), vehicle: saline); 119 % of control (dose: 266.0 mg/kg/injection, schedule: Q04DX003 (ip), vehicle: saline); 162 % of control (dose: 400.0 mg/kg/injection, schedule: Q01DX010 (ip), vehicle: saline); 120 % of control (dose: 532.0 mg/kg/injection, schedule: Q04DX003 (ip), vehicle: saline); 175 % of control (dose: 800.0 mg/kg/injection, schedule: Q01DX010 (ip), vehicle: saline). Where the note is “dose: 2428.0 mg/kg/injection, schedule: Q04DX003 (ip), vehicle: saline”, the T/C was 166 % of control.
With `Cc1cc(C)c(S(=O)(=O)O)cc1C`, the T/C was 104 % of control under setting [3] and 100 % of control under setting [4].
Turning to `CC1CSCC(C)O1` (stereo not drawn), the T/C is 90 % of control under setting [1]; 100 % of control under setting [6]; 100 % of control under setting [7]; 104 % of control under setting [2]; 100 % of control under setting [8]; 104 % of control (dose: 400.0 mg/kg/injection, schedule: Q04DX003 (ip), vehicle: saline).
As for `C[N+]1=C2CCCCCC2=C(N)CC1`, the T/C (dose: 6.25 mg/kg/injection, schedule: Q01DX009 (ip), vehicle: saline) is 100 % of control; the T/C (dose: 12.5 mg/kg/injection, schedule: Q01DX009 (ip), vehicle: saline) is 100 % of control; the T/C (dose: 12.5 mg/kg/injection, schedule: Q04DX003 (ip), vehicle: saline sonified) is 91 % of control; the T/C (dose: 25.0 mg/kg/injection, schedule: Q01DX009 (ip), vehicle: saline) is 100 % of control.
On to `C1=CC23C4CCC2C2C4C4C(=C1)C3C2N1CCCCC41` (stereo not drawn), for which the T/C reads like this: (dose: 12.5 mg/kg/injection, schedule: Q01DX009 (ip), vehicle: Klucel (hydroxypropylcellulose) (HPC)) 104 % of control; (dose: 25.0 mg/kg/injection, schedule: Q01DX009 (ip), vehicle: Klucel (hydroxypropylcellulose) (HPC)) 100 % of control; (dose: 37.5 mg/kg/injection, schedule: Q04DX003 (ip), vehicle: Klucel (hydroxypropylcellulose) (HPC)) 91 % of control; (dose: 50.0 mg/kg/injection, schedule: Q01DX009 (ip), vehicle: Klucel (hydroxypropylcellulose) (HPC)) 100 % of control; (dose: 75.0 mg/kg/injection, schedule: Q04DX003 (ip), vehicle: Klucel (hydroxypropylcellulose) (HPC)) 100 % of control.
Consider `NCCc1ccc(O)c(O)c1`, for which the T/C was 101 % of control and 120 % of control (dose: 37.5 mg/kg/injection, schedule: Q01DX009 (ip), vehicle: saline); 114 % of control (dose: 75.0 mg/kg/injection, schedule: Q01DX009 (ip), vehicle: saline); 111 % of control (dose: 150.0 mg/kg/injection, schedule: Q01DX009 (ip), vehicle: saline); 158 % of control (dose: 300.0 mg/kg/injection, schedule: Q01DX009 (ip), vehicle: saline).
For the compound `N#Cc1c(Nc2cccc(Cl)c2)sc(C(=O)c2cc3cc(Cl)ccc3o2)c1N`, the T/C was 109 % of control under setting [1], 100 % of control under setting [6] and 93 % of control under setting [2].
For `CN(C)c1ccc(Sc2ccc3nc(N)nc(N)c3c2)cc1` the same measures were 112 % of control, 103 % of control and 174 % of control.

For the origin of these results see PubChem BioAssay AID328 (DTP/NCI, 2004).
